Our source for the TGI and GI50 values is PubChem BioAssay (NCI).

Among the test systems are OVCAR-5 ovarian; M14 melanoma; HCT-116 colon; NCI-H460 lung; A498 renal; HOP-62 NSCLC; NCI-H226 lung; HCC-2998 colon; UACC-257 melanoma; OVCAR-4 ovarian; HCT-15 colon.
Holding throughout (assay): NCI tumour cell line growth inhibition, 48 h

SMILES strings stand for the structures.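 In this assay, cells in 96-well plates receive the compound at five concentrations for 48 hours. Endpoints are linearly interpolated between the surrounding concentrations. At the GI50, growth is halved. The concentration for full growth arrest is given as TGI.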 Where only a bound is given, the exact number is not on record here.

On to `Cc1[nH]nc(C(F)(F)F)c1N=NN1CCOCC1`, for which the TGI in the test with OVCAR-5 ovarian is 41.7 µM; with M14 melanoma, 32.8 µM; in the test on HCT-116 colon it was 6.12 µM; with NCI-H460 lung, 17.1 µM; in the test on A498 renal, 32.6 µM; in the test on HOP-62 NSCLC, 28.5 µM. Moreover, the TGI with NCI-H226 lung is 30.4 µM; in the test on HCC-2998 colon it was 6.11 µM; with UACC-257 melanoma, 24.4 µM; in the test on OVCAR-4 ovarian, 15.1 µM; with HCT-15 colon, 25.8 µM.
As to `COc1ccc2cc(/C=N/NC(=O)Nc3ccccc3)ccc2c1`, the TGI in the test on OVCAR-5 ovarian, in the test with M14 melanoma, in the test on HCT-116 colon, in the test with NCI-H460 lung, in the test on A498 renal and with HOP-62 NSCLC was more than 100 µM each time. Besides, the TGI in the test on NCI-H226 lung, with HCC-2998 colon, in the test with UACC-257 melanoma, in the test on OVCAR-4 ovarian and in the test on HCT-15 colon was more than 100 µM each time.
Regarding `O=c1cnn(C/C=C/CO)c(=O)[nH]1`, the TGI in the test on OVCAR-5 ovarian, in the test on M14 melanoma, in the test with NCI-H460 lung, with A498 renal, with HOP-62 NSCLC and in the test with NCI-H226 lung was more than 100 µM in each case. In addition, the TGI with HCC-2998 colon, in the test on UACC-257 melanoma and in the test with HCT-15 colon was more than 100 µM in each case.
Turning to `CN(C)CCCN1CCC2(CCC(C(C)(C)C)CC2)CC1`, the TGI in the test on OVCAR-5 ovarian worked out at 9.08 µM; in the test on M14 melanoma, 3.46 µM; in the test on HCT-116 colon it was 3.19 µM; in the test on NCI-H460 lung, 2.36 µM; with A498 renal, 4.6 µM; in the test on HOP-62 NSCLC it was 4.91 µM. The TGI in the test on NCI-H226 lung was 19.9 µM; in the test on HCC-2998 colon it was 0.417 µM; with UACC-257 melanoma, 2.76 µM; in the test with OVCAR-4 ovarian, 17.3 µM; with HCT-15 colon it was 9.55 µM.
Take `CC(OC(C)(C)C)[C@H](NC(=O)OCC(Cl)(Cl)Cl)C(=O)O` (stereo not given in full): the TGI with OVCAR-5 ovarian, in the test on M14 melanoma, in the test on HCT-116 colon, in the test with NCI-H460 lung, with A498 renal and in the test on HOP-62 NSCLC was more than 100 µM in each case. The TGI in the test with HCC-2998 colon, with UACC-257 melanoma, with OVCAR-4 ovarian and in the test with HCT-15 colon was more than 100 µM in each case.
As to `CCC(/C=C/C1OC(=O)C=CC1C)=C\C(C)C/C=C/C(C)=C/C(C)C(=O)C(C)C(O)C(C)C/C(C)=C/C(=O)O` (stereo not given), the GI50 was less than 0.001 nM in the test on OVCAR-5 ovarian; less than 1 pM in the test with HCT-116 colon; 0.00131 nM in the test with A498 renal; 0.0236 nM with HOP-62 NSCLC; 0.00172 nM in the test on NCI-H226 lung; 2440 nM with HCC-2998 colon. Further, the GI50 in the test with UACC-257 melanoma was 0.294 nM; in the test on OVCAR-4 ovarian, less than 1 pM; in the test on HCT-15 colon, 1.72e-06 µM. Besides, the TGI with OVCAR-5 ovarian was determined as 15.5 µM; in the test on M14 melanoma it was 3.68e-05 µM; in the test with UACC-257 melanoma, 6.25 µM.
As to `S=C(S)NCNC(=S)S.[Zn+2]`, the TGI in the test with OVCAR-5 ovarian, in the test with M14 melanoma, in the test with HCT-116 colon, with NCI-H460 lung, in the test with A498 renal and with HOP-62 NSCLC was more than 100 µM in each case. Further, the TGI in the test on HCC-2998 colon, in the test on UACC-257 melanoma, in the test with OVCAR-4 ovarian and with HCT-15 colon was more than 100 µM throughout.
For `C[C@H](CCC(=O)O)[C@H]1CC[C@H]2[C@@H]3CC[C@@H]4C[C@H](O)CC[C@]4(C)[C@H]3C[C@H](O)[C@]12C`, the TGI was more than 100 µM with OVCAR-5 ovarian; more than 100 µM in the test on M14 melanoma; more than 100 µM in the test on HCT-116 colon; more than 100 µM with NCI-H460 lung; more than 100 µM in the test on A498 renal; 78.6 µM in the test on HOP-62 NSCLC. The TGI with NCI-H226 lung, in the test with HCC-2998 colon, with UACC-257 melanoma, with OVCAR-4 ovarian and with HCT-15 colon was more than 100 µM throughout.
Regarding `CC1(CCOCc2ccccc2)NC(=O)NC1=O` (stereo not given), the TGI in the test on OVCAR-5 ovarian, in the test with M14 melanoma, with HCT-116 colon, with NCI-H460 lung, in the test with A498 renal and in the test on HOP-62 NSCLC was more than 100 µM each time. The TGI in the test with NCI-H226 lung, in the test with HCC-2998 colon, with UACC-257 melanoma, in the test on OVCAR-4 ovarian and with HCT-15 colon was more than 100 µM throughout.
Take `O=C(Cn1c[n+](CC(=O)c2ccc(-c3ccccc3)cc2)c2ccccc21)Nc1cccc2cccnc12`: the GI50 in the test with OVCAR-5 ovarian is 1500 nM; in the test with A498 renal, 1040 nM; in the test with NCI-H226 lung, 2020 nM; in the test on HCC-2998 colon, 1400 nM; in the test on UACC-257 melanoma it was 1280 nM; with HCT-15 colon, 9.63 µM. Further, the TGI in the test with OVCAR-5 ovarian was determined as 2.84 µM; in the test with A498 renal, 4.84 µM; in the test on NCI-H226 lung, 7.33 µM; in the test with HCC-2998 colon, 2.74 µM; with UACC-257 melanoma, 2.78 µM; in the test with HCT-15 colon, 30.9 µM.
`NCc1ccccc1-c1c2nc(c(-c3ccccc3CN)c3ccc([nH]3)c(-c3ccccc3CN)c3nc(c(-c4ccccc4CN)c4ccc1[nH]4)C=C3)C=C2`: the TGI in the test on OVCAR-5 ovarian worked out at 33.8 µM; in the test on M14 melanoma it was 48.7 µM; in the test on HCT-116 colon it was 32.5 µM; in the test on NCI-H460 lung, 66.7 µM; in the test with HOP-62 NSCLC, 60.4 µM; with NCI-H226 lung, 33.4 µM. Further, the TGI with HCC-2998 colon stood at 76.3 µM; in the test on UACC-257 melanoma, 47.7 µM; in the test on OVCAR-4 ovarian, 51.2 µM; with HCT-15 colon, 49.4 µM.
For `Cn1c(=O)c(-c2ccccc2)c(N=[N+]=[N-])c2ccccc21`, the TGI with OVCAR-5 ovarian, with M14 melanoma, with HCT-116 colon, in the test with NCI-H460 lung, in the test on A498 renal and in the test with HOP-62 NSCLC was more than 100 µM in each case. Also, the TGI in the test on NCI-H226 lung is more than 100 µM; in the test on HCC-2998 colon it was 47 µM; in the test with UACC-257 melanoma, more than 100 µM; in the test with OVCAR-4 ovarian it was more than 100 µM; in the test on HCT-15 colon, more than 100 µM.
`O=C(O)CCC(NC(=O)c1ccc(Nc2nc3cc(C(F)(F)F)ccc3nc2-c2ccccc2)cc1)C(=O)O` (stereo not given): the TGI in the test on OVCAR-5 ovarian, in the test on HCT-116 colon, in the test on NCI-H460 lung, with A498 renal, in the test with HOP-62 NSCLC and in the test on NCI-H226 lung was more than 100 µM in each case. In addition, the TGI in the test with HCC-2998 colon, in the test on UACC-257 melanoma, with OVCAR-4 ovarian and in the test on HCT-15 colon was more than 100 µM each time.
On to `Cn1c(=O)c2c(nc(Cc3ccccc3)n2CC(=O)O)n(C)c1=O`, for which the TGI in the test with OVCAR-5 ovarian, in the test on M14 melanoma, with HCT-116 colon, with NCI-H460 lung, in the test on A498 renal and in the test on HOP-62 NSCLC was more than 100 µM in each case. For the same compound, the TGI with NCI-H226 lung, in the test with HCC-2998 colon, with UACC-257 melanoma, with OVCAR-4 ovarian and in the test with HCT-15 colon was more than 100 µM throughout.
